Test system: 857933-349-R-J2-PDC complex spheroid viability
Assay: Anticancer human tumor 857933-349-R-J2-PDC patient-derived colon adenocarcinoma cell line growth inhibition [POLQ]
Conditions: for IC50: curve of first compound; for viability, T/C: stronger effect = lower value
Experimental: Multicellular complex tumor spheroid response to Polymerase (POL) inhibitors (novobiocin, ART-558, RP6685) in combination with a variety of drugs and investigational agents in selected tumor cell lines
The POL inhibitors (novobiocin, ART-558, and RP6685) were evaluated both individually and in combination with standard of care and investigational anticancer small molecules within a complex spheroid model of solid tumors. . Complex spheroids include a stromal component modeled by human endothelial cells (HUVEC) and fibroblasts modeled by human mesenchymal stem cells (MSCs). The concentration ranges selected for each drug and investigational agent were based upon clinically achievable concentrations if the clinical Cmax of the agent was known.
Compounds. The drugs and investigational agents: novobiocin (NSC847541), ART-558 (NSC835418), RP-6685 (NSC848927), peposertib (NSC802822), ceralasertib (NSC780249), elimusertib (NSC800525), camonsertib (NSC841442), AZD-1390 (NSC803789), olaparib (NSC753686), talazoparib (NSC767125), rucaparib (NSC756644), sotorasib (NSC818433), MRTX-1133 (NSC836407), SN-38 (NSC673596), topotecan (NSC609699), epotoside (NSC141540), doxorubicin (NSC123127), gemcitabine (NSC613327), 5-fluorouracil (NSC19893), paclitaxel (NSC125973), vemurafenib (NSC761431), MSA-2 (NSC828583), SN-011 (NSC837082), adavosertib (NSC754352), prexasertib (NSC758257), carboplatin (NSC241240) and oxaliplatin (NSC266046), were obtained from the National Cancer Institute (NCI) Developmental Therapeutics Program Chemical Repository (21). The FDA-approved anticancer drug set is available from the Developmental Therapeutics Program at https://dtp.cancer.gov/organization/dscb/obtaining/. […] The stock solutions were prepared in dimethyl sulfoxide (DMSO, Sigma-Aldrich, St. Louis, MO, cat. D2650), except for the platinum compounds which were prepared in saline (Quality Biological, Gaithersburg, MD, cat. 114-055-101), at 800-fold the tested concentration and stored at -70 degrees C prior to their use. All drugs and investigational agents were tested over a range starting from a high concentration at or near the clinical Cmax and decreasing in half-log increments. If the clinical Cmax for an agent had not been determined, the highest concentration tested was 10 microM, except for SN-38, which was tested at a high concentration of 1 microM.
Cell Culture. All cells were maintained in an incubator at 37 degrees C and 5% CO2 with 95% humidity. The PDC lines were cultured according to standard operating procedures established by the NCI PDMR (https://pdmr.cancer.gov). Table 3 of the manuscript, lists the cell lines along with the number of the three cell types plated to form the mct-spheroids and media for tumor cell growth. After thawing, all PDC lines, except 997537-175-T-J1-PDC and 415267-285-R-J2-PDC, were cultured in Matrigel-coated flasks prepared with a working solution of 1X Ham's F-12 nutrient mix, without supplementation (Thermo Fisher Scientific, cat. 11765054), 100 U/mL penicillin-streptomycin (Thermo Fisher Scientific, cat. 15140122), and 2.5% Matrigel (Corning Inc., Corning, NY, cat. 354248) for the first three passages. The two PDC lines 997537-175-T-J1-PDC and 415267-285-R-J2-PDC were cultured on uncoated flasks. The 857933-349-R-J2-PDC line was cultured in 6C/Colon 1B media containing advanced DMEM/F-12 (Thermo Fisher Scientific, cat. 12634028), 10 mM HEPES (Thermo Fisher Scientific, cat. 15630080), 1X GlutaMAX supplement (Thermo Fisher Scientific, cat. 35050061), 0.1 mg/mL primocin (InvivoGen, San Diego, CA, cat. ant-pm-2), 10% defined fetal bovine serum, heat inactivated (HyClone Laboratories Inc., Logan, UT, cat. SH30070.03HI), 50% L-WRN conditioned media (ATCC, cat. CRL-3276), 1.25 mM N-Acetyl-L-cysteine (Sigma-Aldrich, cat. A9165), 10 mM nicotinamide (Sigma-Aldrich, cat. N0636), 1X B-27 supplement (Thermo Fisher Scientific, cat. 17504044), 1X N-2 supplement (Thermo Fisher Scientific, cat. […]
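Further: spheroids exposed to compounds for seven days before readout.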

With `CC1COCCN1c1cc(-c2ccnn2C)c2ccnc(-c3ccn[nH]3)c2n1` (configuration not stated) + Nc1ccc(C#CCN(C(=O)Cc2ncc(C(F)(F)F)cc2C(F)(F)F)c2ccc(F)cc2)nn1 the IC50 (second compound 0.0316 µM) was 812 nM, the IC50 (second compound 0.1 µM) was 495 nM and the IC50 (second compound 0.316 µM) was 739 nM. For the same compound, the IC50 (second compound 1 µM) was 445 nM, the IC50 (second compound 3.16 µM) was 272 nM and the IC50 (second compound 10 µM) was 648 nM. It also gave a viability, T/C (second compound 0.0316 µM, first compound 0.0316 µM) of 76.4%, a viability, T/C (second compound 0.0316 µM, first compound 0.1 µM) of 65.6% and a viability, T/C (second compound 0.0316 µM, first compound 0.316 µM) of 62.1%. The viability, T/C (second compound 0.0316 µM, first compound 1 µM) was 50.3%, the viability, T/C (second compound 0.0316 µM, first compound 3.16 µM) was 32.5% and the viability, T/C (second compound 0.0316 µM, first compound 10 µM) was 43.8%. The viability, T/C (second compound 0.1 µM, first compound 0.0316 µM) was 71.5%, the viability, T/C (second compound 0.1 µM, first compound 0.1 µM) was 65.3% and the viability, T/C (second compound 0.1 µM, first compound 0.316 µM) was 53%. For the same compound, the viability, T/C (second compound 0.1 µM, first compound 1 µM) was 47.9%, the viability, T/C (second compound 0.1 µM, first compound 3.16 µM) was 30.9% and the viability, T/C (second compound 0.1 µM, first compound 10 µM) was 42.8%. It also gave a viability, T/C (second compound 0.316 µM, first compound 0.0316 µM) of 81.1%, a viability, T/C (second compound 0.316 µM, first compound 0.1 µM) of 78.5% and a viability, T/C (second compound 0.316 µM, first compound 0.316 µM) of 56.2%. It also gave a viability, T/C (second compound 0.316 µM, first compound 1 µM) of 51.4%, a viability, T/C (second compound 0.316 µM, first compound 3.16 µM) of 37.3% and a viability, T/C (second compound 0.316 µM, first compound 10 µM) of 41.3%. For the same compound, the viability, T/C (second compound 1 µM, first compound 0.0316 µM) was 74.9%, the viability, T/C (second compound 1 µM, first compound 0.1 µM) was 61.9% and the viability, T/C (second compound 1 µM, first compound 0.316 µM) was 51.5%. The viability, T/C (second compound 1 µM, first compound 1 µM) was 49%, the viability, T/C (second compound 1 µM, first compound 3.16 µM) was 36.9% and the viability, T/C (second compound 1 µM, first compound 10 µM) was 45.6%. It also gave a viability, T/C (second compound 3.16 µM, first compound 0.0316 µM) of 76.4%, a viability, T/C (second compound 3.16 µM, first compound 0.1 µM) of 68.2% and a viability, T/C (second compound 3.16 µM, first compound 0.316 µM) of 47.4%. It also gave a viability, T/C (second compound 3.16 µM, first compound 1 µM) of 42.9%, a viability, T/C (second compound 3.16 µM, first compound 3.16 µM) of 42.8% and a viability, T/C (second compound 3.16 µM, first compound 10 µM) of 46.7%. It also gave a viability, T/C (second compound 10 µM, first compound 0.0316 µM) of 78.2%, a viability, T/C (second compound 10 µM, first compound 0.1 µM) of 62.1% and a viability, T/C (second compound 10 µM, first compound 0.316 µM) of 54.8%. It also gave a viability, T/C (second compound 10 µM, first compound 1 µM) of 45.3%, a viability, T/C (second compound 10 µM, first compound 3.16 µM) of 47.2% and a viability, T/C (second compound 10 µM, first compound 10 µM) of 45.5%.

Source: PubChem BioAssay AID1963836 (Molecular Pharmacology Branch, DTP, NCI, 2024)
